# Results: US8202879B2, “Quinazoline derivatives having tyrosine kinase inhibitory activity” (Shionogi & Co., Ltd., priority 2005, dated 2012)
# Structures can show the parent of a compound that is named as a salt. Where two headings read alike, the source gives them in different places.
# Assays:
# EGFR = target: T1, EGFR (Homo sapiens, UniProt P00533); experiment: Enzyme inhibitory activity on EGFR (time resolution fluorescence, biotinylated poly-Glu-Tyr substrate); format: biochemical
# T1 construct: purchased Carna Biosciences, Inc; host or cells: insect cell expression system
# T1 sequence (P00533 25-1210): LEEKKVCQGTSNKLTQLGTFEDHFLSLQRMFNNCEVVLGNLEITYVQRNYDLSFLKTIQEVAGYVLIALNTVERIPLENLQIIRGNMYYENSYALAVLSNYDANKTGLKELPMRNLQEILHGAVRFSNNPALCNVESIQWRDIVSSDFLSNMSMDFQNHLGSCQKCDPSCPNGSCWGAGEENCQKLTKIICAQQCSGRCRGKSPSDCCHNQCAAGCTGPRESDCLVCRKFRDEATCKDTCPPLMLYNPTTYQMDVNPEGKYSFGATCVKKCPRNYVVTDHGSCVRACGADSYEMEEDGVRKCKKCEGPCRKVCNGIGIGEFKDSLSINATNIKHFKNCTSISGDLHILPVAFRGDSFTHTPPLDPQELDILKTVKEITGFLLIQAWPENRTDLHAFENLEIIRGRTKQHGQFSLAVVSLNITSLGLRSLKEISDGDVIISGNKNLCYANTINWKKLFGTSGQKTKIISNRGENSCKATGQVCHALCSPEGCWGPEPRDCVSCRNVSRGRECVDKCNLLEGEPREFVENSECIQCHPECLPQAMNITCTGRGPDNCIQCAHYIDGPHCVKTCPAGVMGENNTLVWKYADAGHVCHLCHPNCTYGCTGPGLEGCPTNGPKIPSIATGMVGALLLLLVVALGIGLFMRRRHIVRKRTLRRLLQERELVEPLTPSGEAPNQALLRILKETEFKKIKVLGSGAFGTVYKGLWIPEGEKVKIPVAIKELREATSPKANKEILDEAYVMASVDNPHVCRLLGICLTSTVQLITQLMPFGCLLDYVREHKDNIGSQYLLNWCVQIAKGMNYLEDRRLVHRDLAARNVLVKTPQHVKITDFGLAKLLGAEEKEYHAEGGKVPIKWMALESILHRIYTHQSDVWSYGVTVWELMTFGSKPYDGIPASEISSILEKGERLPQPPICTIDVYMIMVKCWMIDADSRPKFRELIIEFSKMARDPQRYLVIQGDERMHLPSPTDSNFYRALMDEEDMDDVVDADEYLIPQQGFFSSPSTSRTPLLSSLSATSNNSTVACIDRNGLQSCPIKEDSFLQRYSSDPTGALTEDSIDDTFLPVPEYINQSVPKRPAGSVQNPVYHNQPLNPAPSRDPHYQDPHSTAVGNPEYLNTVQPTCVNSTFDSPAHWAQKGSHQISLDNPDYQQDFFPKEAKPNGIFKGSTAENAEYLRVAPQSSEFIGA
# Procedure: (§1) Enzyme Inhibitory Activity of Test Compound on EGFR and HER2
# (§2) EGFR and HER2 purified from an insect cell expression system, and a biotinylated substrate (synthetic peptide of glutamic acid:tyrosine=4:1) were added to a 384-well plate with ATP added thereto, and an enzyme reaction was performed at room temperature. After completion of the enzyme reaction, an anti-phosphorylated tyrosine antibody labeled with europium and streptavidin labeled with alphycocyanine were added, and a phosphorylated tyrosine residue was quantified by a time resolution fluorescence method.
# (§3) A test compound was adjusted to 10 mM using DMSO.
# (§4) Further, using 10% DMSO solution, a 1 mM solution was prepared, and this was regarded as a maximum concentration point.
# (§5) As a dilution series, a 4-fold dilution series was prepared to a 10 stage.
# (§6) As a buffer, TBS containing 10 mM MgCl2, 5 mM MnCl2, 0.2 mM Na3VO4, and 0.1% BSA was used.
# (§7) As EGFR and HER2 enzymes, those purified from an insect cell expression system were purchased from Carna Biosciences, Inc.
# An EGFR enzyme solution was adjusted to 250 ng/ml using a buffer.
# (§8) As a substrate, biotinylated poly-Glu-Tyr (4:1, manufactured by CISbio) was used. A concentration was adjusted to 3.125 μg/ml using the above buffer.
# An ATP concentration on study of the EGFR enzyme was adjusted to 125 μM using the buffer.
# (§9) For preparing a detection reagent, TBS containing 30 mM EDTA, 0.8M KF and 0.1% BSA was used.
# (§10) An anti-phosphorylated tyrosine antibody labeled with europium, PT-66K (CISbio) was adjusted to 195 ng/ml, and streptavidin labeled with alphycocyanine, SA-XL (CISbio) was adjusted to 5 μg/ml.
# (§11) As an assay plate, a 384-well plate was used. Per one well, 1.1 μl of a test compound, 4 μl of a substrate solution, and 4 μl of an enzyme solution were added, and 2 μl of an ATP solution was added to initiate an enzyme reaction. The enzyme reaction was performed at room temperature for 60 minutes, and 10 μl of a detection reagent was added to complete the reaction. One hour after completion of the reaction, time resolution fluorescent measurement was performed.
# HER2 = target: T2, HER2 (Homo sapiens, UniProt P04626); experiment: Enzyme inhibitory activity on HER2 (time resolution fluorescence, biotinylated poly-Glu-Tyr substrate); format: biochemical
# T2 construct: purchased Carna Biosciences, Inc; host or cells: insect cell expression system
# T2 sequence (P04626 23-1255): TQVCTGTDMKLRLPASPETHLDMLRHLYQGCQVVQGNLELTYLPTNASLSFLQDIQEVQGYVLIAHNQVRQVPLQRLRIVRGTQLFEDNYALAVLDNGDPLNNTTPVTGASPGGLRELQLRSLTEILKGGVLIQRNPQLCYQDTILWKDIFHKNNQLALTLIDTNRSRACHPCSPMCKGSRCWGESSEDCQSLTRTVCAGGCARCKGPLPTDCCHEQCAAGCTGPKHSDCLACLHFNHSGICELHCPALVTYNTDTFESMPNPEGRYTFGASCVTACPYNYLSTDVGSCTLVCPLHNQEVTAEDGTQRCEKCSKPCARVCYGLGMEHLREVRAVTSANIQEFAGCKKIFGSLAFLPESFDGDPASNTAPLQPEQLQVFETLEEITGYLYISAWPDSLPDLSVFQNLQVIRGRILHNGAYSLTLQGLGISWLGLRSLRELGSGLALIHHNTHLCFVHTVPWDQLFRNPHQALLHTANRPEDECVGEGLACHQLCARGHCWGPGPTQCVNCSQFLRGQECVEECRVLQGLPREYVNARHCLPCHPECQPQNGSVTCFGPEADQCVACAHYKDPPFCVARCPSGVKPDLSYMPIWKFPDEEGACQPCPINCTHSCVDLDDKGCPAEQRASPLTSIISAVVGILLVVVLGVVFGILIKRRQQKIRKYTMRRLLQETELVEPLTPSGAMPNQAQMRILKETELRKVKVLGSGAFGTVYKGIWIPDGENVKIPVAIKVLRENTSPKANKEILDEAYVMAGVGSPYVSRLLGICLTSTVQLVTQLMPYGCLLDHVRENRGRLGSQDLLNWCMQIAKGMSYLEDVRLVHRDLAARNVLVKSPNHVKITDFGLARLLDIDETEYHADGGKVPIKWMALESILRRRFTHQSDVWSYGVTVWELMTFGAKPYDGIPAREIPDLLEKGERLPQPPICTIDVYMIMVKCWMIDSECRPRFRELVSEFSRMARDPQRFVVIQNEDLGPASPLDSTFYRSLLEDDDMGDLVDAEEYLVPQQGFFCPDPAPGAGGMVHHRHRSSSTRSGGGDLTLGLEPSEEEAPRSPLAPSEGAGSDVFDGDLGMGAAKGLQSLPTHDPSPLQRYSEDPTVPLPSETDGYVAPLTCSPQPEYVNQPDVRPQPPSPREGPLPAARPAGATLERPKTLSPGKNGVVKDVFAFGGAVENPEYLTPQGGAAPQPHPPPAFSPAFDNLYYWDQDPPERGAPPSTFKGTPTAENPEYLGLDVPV
# Procedure: as §1, §2, §3, §4, §5, §6, §7
# HER2 kinase was adjusted to 1000 ng/ml using a buffer.
# as §8
# An ATP concentration on study of the HER2 enzyme was adjusted to 290 μM.
# as §9, §10, §11
# BT-474 = experiment: In vitro cell proliferation inhibition, WST assay; format: cell-based, human; conditions: BT-474 cells, cultured for 3 days, read-out: BT-474 (nM) proliferation inhibitory activity (IC50 value)
# Procedure: Test of In Vitro Cell Proliferation Inhibition of Test Compound
# As a human-derived cancer cell strain, BT-474 was used. Cells were all cultured in a 37° C., 5% CO2 incubator in a medium in which 10% bovine fetal serum (ICN) and 50 units ml penicillin/60 μg/ml streptomycin solution (GIBCO) were added to Dulbecco's Modified Essential Medium (DMEM, Nacalai Tesque, Inc).
# [1] = EGFR purified from insect cell expression system, ATP solution 125 μM, room temperature, 60 minutes
# [2] = HER2 purified from insect cell expression system, ATP solution 290 μM, room temperature, 60 minutes
# [3] = enzyme reaction at room temperature for 60 minutes
SMILES,IC50 (EGFR; [1]) [nM],IC50 (HER2; [2]) [nM],"IC50 (BT-474; Homo sapiens, BT-474, 72 h) [nM]",IC50 (EGFR; [3]) [nM],IC50 (HER2; [3]) [nM],IC50 (BT-474) [nM]
Fc1cccc(COc2ccc(Nc3ncnc4ccc(/C=N/OCCN5CCCC5)cc34)cc2Cl)c1 [Compound V-6],6.5,3.6,110,,,
Fc1cccc(COc2ccc(Nc3ncnc4ccc(/C=N/OCCN5CCOCC5)cc34)cc2Cl)c1 [Compound V-7],36,76,134,,,
"C=CC(=O)N1CCN(CCON=Cc2ccc3ncnc(Nc4ccc(OCc5cccc(F)c5)c(Cl)c4)c3c2)CC1 [Compound V-43, 4-(3-chloro-4-(3-fluorobenzyloxy)phenylamino)-6-(2-(4-acryloyl-1-piperazin-1-yl)ethoxyimino)methylquinazoline]",186,151,71,,,
"Fc1cccc(COc2ccc(Nc3ncnc4ccc(C=NN5CCCC5)cc34)cc2Cl)c1 [IX-1, 4-(3-chloro-4-(3-fluorobenzyloxy)phenylamino)-6-(pyrrolidin-1-yliminomethyl)quinazoline]",,,,138,203,
Fc1cccc(COc2ccc(Nc3ncnc4ccc(/C=N/N5CCCCC5)cc34)cc2Cl)c1 [IX-4],,,,193,334,
COC[C@@H]1CCCN1/N=C/c1ccc2ncnc(Nc3ccc(OCc4cccc(F)c4)c(Cl)c3)c2c1 [IX-6],,,,344,326,
CN(/N=C/c1ccc2ncnc(Nc3ccc(OCc4cccc(F)c4)c(Cl)c3)c2c1)c1ccccc1 [IX-8],,,,426,549,
CC/C(=N\OCCN1CCOCC1)c1ccc2ncnc(Nc3ccc(OCc4cccc(F)c4)c(Cl)c3)c2c1 [VIII-7],103,348,63,,,
CC#CC(=NOCCN1CCOCC1)c1ccc2ncnc(Nc3ccc(OCc4cccc(F)c4)c(Cl)c3)c2c1 [VIII-10],409,484,27,,,
O=S1(=O)CCN(CCON=C(c2ccccc2)c2ccc3ncnc(Nc4ccc(OCc5cccc(F)c5)c(Cl)c4)c3c2)CC1 [VIII-12],209,227,69,,,
Fc1cccc(COc2ccc(Nc3ncnc4ccc(C(=NOCCN5CCOCC5)c5ccccc5)cc34)cc2Cl)c1 [VIII-13],300,888,64,,,
CC/C(=N\OCCNCCS(C)(=O)=O)c1ccc2ncnc(Nc3ccc(OCc4cccc(F)c4)c(Cl)c3)c2c1 [VIII-19],89,115,,,,
CC/C(=N\OCCNC)c1ccc2ncnc(Nc3ccc(OCc4cccc(F)c4)c(Cl)c3)c2c1 [VIII-20],29,31,37,,,
CC#C/C(=N\OCCNC1CCCCC1)c1ccc2ncnc(Nc3ccc(OCc4cccc(F)c4)c(Cl)c3)c2c1 [VIII-28],162,167,,,,72
CS(=O)(=O)CCNCCON=C(c1ccccc1)c1ccc2ncnc(Nc3ccc(OCc4cccc(F)c4)c(Cl)c3)c2c1 [VIII-29],102,513,77,,,
"CC#CC(=NOC[C@@H]1CNCCO1)c1ccc2ncnc(Nc3ccc(OCc4cccc(F)c4)c(Cl)c3)c2c1 [VIII-32, 4-(3-chloro-4-(3-fluorobenzyloxy)phenylamino)-6-(1-((S)-morpholin-2-ylmethoxyimino)-2-butyn-1-yl)quinazoline dihydrochloride]",50,46,32,,,
CC#C/C(=N\OCCNC1CCOCC1)c1ccc2ncnc(Nc3ccc(OCc4cccc(F)c4)c(Cl)c3)c2c1 [VIII-55],19,68,25,,,
CC#C/C(=N\OC[C@@H](COC)NC)c1ccc2ncnc(Nc3ccc(OCc4cccc(F)c4)c(Cl)c3)c2c1 [VIII-56],7.9,13.8,,,,14
CC#CC(=NOCCNC(=NC#N)NC)c1ccc2ncnc(Nc3ccc(OCc4cccc(F)c4)c(Cl)c3)c2c1 [VIII-58],207,236,37,,,
CC#C/C(=N\OCCNC1CCN(S(C)(=O)=O)CC1)c1ccc2ncnc(Nc3ccc(OCc4cccc(F)c4)c(Cl)c3)c2c1 [VIII-60],54,30,,,,14
CC#C/C(=N\OCCNC1CCN(C(C)=O)CC1)c1ccc2ncnc(Nc3ccc(OCc4cccc(F)c4)c(Cl)c3)c2c1 [VIII-61],30,24,,,,11
CC#C/C(=N\OC[C@@H]1C[C@H](O)CN1)c1ccc2ncnc(Nc3ccc4c(cnn4Cc4cccc(F)c4)c3)c2c1 [VIII-200],,,,,,8

# Next, values leading:
IC50 (EGFR; [1]) [nM],IC50 (HER2; [2]) [nM],"IC50 (BT-474; Homo sapiens, BT-474, 72 h) [nM]",IC50 (EGFR; [3]) [nM],IC50 (HER2; [3]) [nM],IC50 (BT-474) [nM],SMILES
33,43,,,,13,CC#C/C(=N\OCCNC)c1ccc2ncnc(Nc3ccc(OCc4cccc(F)c4)c(Cl)c3)c2c1 [VIII-27]
11,25,24,,,,CC#CC(=NOCCNCC)c1ccc2ncnc(Nc3ccc(OCc4cccc(F)c4)c(Cl)c3)c2c1 [VIII-35]
9.3,19.2,,,,9,CC#CC(=NOCC(C)N)c1ccc2ncnc(Nc3ccc(OCc4cccc(F)c4)c(Cl)c3)c2c1 (stereo not shown) [VIII-40]
12,15,,,,14,CC#C/C(=N\OC[C@@H](N)CO)c1ccc2ncnc(Nc3ccc(OCc4cccc(F)c4)c(Cl)c3)c2c1 [VIII-41]
10,11,,,,24,CC#C/C(=N\OCCN)c1ccc2ncnc(Nc3ccc(OCc4cccc(F)c4)c(Cl)c3)c2c1 [VIII-42]
26,6.3,,,,28,CC#C/C(=N\OCCNC(C)COC)c1ccc2ncnc(Nc3ccc(OCc4cccc(F)c4)c(Cl)c3)c2c1 (stereo not shown) [VIII-44]
58,152,,,,13,CC#C/C(=N\OCCNCCS(C)(=O)=O)c1ccc2ncnc(Nc3ccc(OCc4cccc(F)c4)c(Cl)c3)c2c1 [VIII-45]
82,104,12,,,,CC#C/C(=N\OCCNC1CC1)c1ccc2ncnc(Nc3ccc(OCc4cccc(F)c4)c(Cl)c3)c2c1 [VIII-46]
12,23,,,,4,CC#C/C(=N\OCCNCCNC(C)=O)c1ccc2ncnc(Nc3ccc(OCc4cccc(F)c4)c(Cl)c3)c2c1 [VIII-47]
44,15,,,,28,CC#C/C(=N\OCCNC[C@H]1CCCO1)c1ccc2ncnc(Nc3ccc(OCc4cccc(F)c4)c(Cl)c3)c2c1 [VIII-48]
28,31,,,,28,CC#C/C(=N\OCCNC[C@@H]1CCCO1)c1ccc2ncnc(Nc3ccc(OCc4cccc(F)c4)c(Cl)c3)c2c1 [VIII-49]
19,15,27,,,,CC#C/C(=N\OCCNCCCN1CCCC1=O)c1ccc2ncnc(Nc3ccc(OCc4cccc(F)c4)c(Cl)c3)c2c1 [VIII-50]
45,64,9,,,,CC#C/C(=N\OCCNCCNS(C)(=O)=O)c1ccc2ncnc(Nc3ccc(OCc4cccc(F)c4)c(Cl)c3)c2c1 [VIII-51]
19,28,,,,9,CC#C/C(=N\OCCNC[C@H]1CCC(=O)N1)c1ccc2ncnc(Nc3ccc(OCc4cccc(F)c4)c(Cl)c3)c2c1 [VIII-52]
79,80,12,,,,CC#C/C(=N\OCCNCCOC(N)=O)c1ccc2ncnc(Nc3ccc(OCc4cccc(F)c4)c(Cl)c3)c2c1 [VIII-53]
301,303,,,,15,CC#C/C(=N\OCCNCC(F)(F)F)c1ccc2ncnc(Nc3ccc(OCc4cccc(F)c4)c(Cl)c3)c2c1 [VIII-57]
115,278,,,,11,CC#C/C(=N\OCCNC[C@@H]1COC(=O)N1)c1ccc2ncnc(Nc3ccc(OCc4cccc(F)c4)c(Cl)c3)c2c1 [VIII-59]
52,,22,,,,CC#C/C(=N\OCCN(C)CCOC)c1ccc2ncnc(Nc3ccc(OCc4cccc(F)c4)c(Cl)c3)c2c1 [VIII-64]
